Measured values as given in patent US20140315717A1 (priority 2006, published 2014).
Values joined by “and” are separate entries in the source; they are usually repeats but may differ in a detail not shown here. Identical values can stand only once. Like-named read-outs stand apart in the source and are kept apart here.

What was measured:
[1] = test system: PR-2, i.e., β-1,3-glucanase; assay: Induction of PR-2 mRNA (northern blot) in DMO soybean after spraying; assay type: in vivo; conditions: for induction of PR2 at various rates: 0.25, 0.5 and 1 lb/acre, 24 hrs after treatment, two independent transgenic soybean lines, FIG. 2
Source text: (§1) Transgenic and control soybean seeds (cultivars Thorne, NE3001, A3525) were planted into 3.5-inch square plastic pots containing Redi-Earth™ (Scotts-Sierra Horticultural Products Co., Marysville, Ohio). The pots were placed on capillary matting in 35 inch×60 inch fiberglass watering trays for overhead and/or sub-irrigation for the duration of the test period so as to maintain optimum soil moisture for plant growth and were fertilized with Osmocote® (14-14-14 slow release; Scotts-Sierra Horticultural Products Co., Marysville, Ohio) at the rate of 100 gm/cu. ft. to sustain plant growth for the duration of greenhouse trials.
(§2) A 14 hour minimum photoperiod was provided with supplemental light at about 600 μE (micro-Einsteins) as needed. Trials were established in a randomized block design randomized by rate with 4 to 6 replications of each treatment.
(§3) All herbicide applications were made with the track sprayer using a Teejet® 9501E flat fan nozzle (Spraying Systems Co, Wheaton, Ill.) with air pressure set at a minimum of 24 psi (pounds per square inch), or 165 kpa (kilopascals)). The spray nozzle was kept at a height of about 16 inches above the top of plant material for spraying. The spray volume was 10 gallons per acre or 93 liters per hectare. Applications were made when plants had reached V-3 stage.
Leaf samples were harvested after 0, 3, 8, 24, 48, 72 hrs after treatment (HAT) and frozen for further analysis. […] RNA was extracted and analyzed by northern blot analysis using PR-2, i.e., β-1,3-glucanase as a probe.

[2] = test system: Root Knot Nematode (RKN; Meloidogyne incognita); assay: Control of cotton root knot nematode in cotton plants (ST474); assay type: in vivo; conditions: RKN + DCSA
Procedure: DCSA was unexpectedly found to control gall formation, improve plant height and reduce number of eggs produced by the nematode in cotton plants (ST474) (Table 5). Ten to fourteen days old cotton plants were treated with DCSA at the rate of […], 24 hrs before inoculating them with RKN eggs. […] Plant height, gall rating, and egg counts were measured 45 days after inoculation. The gall rating scale was 0-5 with 0=no visible galling and 5=heavy galling.

[3] = test system: Verticillium dahliae; assay: Protection of cotton against Verticillium wilt, seedling dipping inoculation; assay type: in vivo; conditions: for Plant survival rating (out of 10) / Severity rating (1-9): cotton ST6611, DCSA 1 lb/A, glyphosate 0.75 lb/A 24 hours before inoculation; for Severity rating (1-9): 1 healthy, 9 dead
Source text: DCSA was unexpectedly found to provide protection to cotton plants against Verticillium dahliae, causal agent of cotton wilt disease (Table 6). Cotton plants of the variety ST6611, BOLLGARD 2, ROUNDUP READY FLEX, were inoculated with a moderate isolate (DPL) or a virulent isolate (King) of Verticillium by a seedling dipping method. Seedlings at the first true leaf stage were taken out from the pots, one inch of roots were cut off, seedlings were dipped in a spore slurry for one minute, and then transplanted back in the pots. These strains were isolated and provided by Dr. Terry Wheeler (Texas A&M University, TX USA). DCSA was applied at the rate of 1 lb/A and glyphosate (ROUNDUP WEATHERMAX, Monsanto) at the rate of 0.75 lb/A 24 hours before inoculation. Protection against Verticillium was measured on a disease severity scale of 1-9: 1 being healthy and 9 being dead because of disease, and also was measured as the number of plants that survived out of 10 inoculated plants.

[4] = test system: soybean plants; assay type: in vivo
Source text: as §1, §2, §3
For this example, the plants were grown as described in the above example. Transgenic and non transgenic soybean plants carrying the DMO gene in their genome were either treated with Paraquat (Gramoxone®; Syngenta) to create oxidative stress or with dicamba followed by Paraquat at V3 stage. The dicamba rate was 1 lb/acre or 1120 g ae/ha. Paraquat was applied at 30, 70, or 200 g ae/ha. Plants were then evaluated for paraquat injury by visually assessing injury at a particular day after treatment (DAT) for injury on a scale of 0 to 100 percent relative to untreated control plants, with zero representing “no” injury and 100% representing “complete” injury or death. Data were collected and analyzed using suitable statistical methods.
In another experiment, the effect of externally applied DCSA was tested for its benefit in protecting soybean plants from oxidative stress injury caused by Paraquat. Different amounts of DCSA were applied 24 hrs before applying Paraquat to test any correlation between the amount of DCSA applied and the extent of protection obtained from oxidative stress measured in terms of reduction in % injury as described above. Different levels of dicamba were also applied separately to test the same hypothesis.

[5] = test system: cotton plants; assay: Paraquat (Gramoxone) oxidative stress injury in cotton, visual % injury; assay type: in vivo; conditions: for Percentage injury: 2 DAT, DCSA where applied 1 lb/acre 24 hours before
Procedure: Four different cotton cultivars as indicated in Table 3 were grown in 4-inch pots for two weeks. These cotton plants were either sprayed with DCSA (BASF) at the 1 lb/A rate, or unsprayed (no DCSA application, as control). Experimental plants (treated with DCSA and untreated) were sprayed with Paraquat (Gramoxone®; Syngenta) at 30 gm/ha, 70 gm/ha, and 100 gm/ha rates, 24 hours after the application of DCSA, to simulate oxidative stress. […] The same experiment was repeated at two different growth stages of cotton (2 nodes stage and 5 nodes stage).

[6] = test system: Pythium ultimum; assay: Pythium ultimum inoculation of sprayed cotton seedlings; assay type: in vivo; conditions: cotton plants contacted with 3,6-DCSA; untreated plants are killed
Procedure: Ten-day old Roundup Ready® Flex Cotton (Event MON 88913; U.S. Publ. 20060059590) seedlings were sprayed with a mixture of Roundup Weather Max® (Monsanto, St. Louis, Mo.) and 3,6-DCSA (BASF). The control plants were sprayed with water only. The cotton seedlings from both treatments were inoculated with Pythium ultimum by dipping seedling into inoculum slurry, 24 hours after the spray application. The positive control plants were neither sprayed nor inoculated with P. P. ultimum. […] Cotton plants treated with Roundup® and DCSA were as healthy as were the plants not inoculated with P. ultimum.

[7] = test system: Xanthomonas campestris pv. malvacearum; assay: Bacterial blight tooth pick inoculation of sprayed cotton plants; assay type: in vivo; conditions: two-week old cotton, DCSA sprayed about 24 hours before inoculation, FIG. 4
Procedure: In this example, two-week old cotton plants were sprayed with DCSA while control plants received spray application of water only. The plants were inoculated with bacterial blight pathogen (Xanthomonas campestris pv. malvacearum) about 24 hours after the DCSA spray application using a tooth pick inoculation method. As shown in the FIG. 4, the cotton plants inoculated with the bacterial pathogen but not sprayed with DCSA developed necrotic spots, typical symptoms of bacterial blight. […] The results of this experiment indicate that DCSA application reduced bacterial infection on cotton plants when inoculated with bacterial pathogen 24 hours after the DCSA spray.

[8] = test system: soybean; conditions: DMO transgenic soybean, dicamba 1.5 lb ae/acre Pre and/or Post (V3-4), in 4/5 events and 13/15 treatments, FIG. 6
Procedure: The yield enhancing-benefit of DSCA was tested by growing non-transgenic and transgenic plants and applying dicamba to transgenic plants and harvesting the seeds. Non-transgenic and transgenic soybean seeds were planted near the beginning of the growing season in several locations at the time of best possible growth conditions such as soil moisture, temperature, and seeding depth. […] In all, 240 plots were planted at 6 locations (40 per location).
Four non-transgenic border rows were planted all around the trial using a known commercial line such as A3525. Optimum production and management practices known in the art were followed. Maximum pest control and disease control was practiced as needed to prevent confounding effects of dicamba applications. The field was irrigated as needed according to standard practices.

[9] = individual cotton plants 1-8, DCSA 24 hrs before inoculation, 45 days after inoculation
[10] = Verticillium isolate DPL (moderate)
[11] = Verticillium isolate King (virulent)

## O=C(O)c1c(Cl)ccc(Cl)c1O [DCSA, 3,6-dichloro salicylic acid]
[1]
  induction of PR2 at various rates: induction of PR2
[2]; individual cotton plants 1-8, 45 days after inoculation, 0=no visible galling, 5=heavy galling
  RKN Gall Rating (0-5): 0 (4×) and 2 and 1 (3×)
[2]; [9]
  Egg Count/pot: 5,200 and 1,800 and 2,200
  Plant Height: 25.4 cm (3×) and 22.2 cm and 17.8 cm and 14.0 cm and 15.9 cm and 12.7 cm
[2]; mean of 8 cotton plants, 45 days after inoculation
  Plant Height, Mean: 19.8 cm
[2]; mean of 8 cotton plants, 45 days after inoculation, 0=no visible galling, 5=heavy galling
  RKN Gall Rating (0-5), Mean: 0.6
[3]; [10]
  Plant survival rating (out of 10): 10
  Severity rating (1-9): 1
[3]; [11]
  Plant survival rating (out of 10): 10
  Severity rating (1-9): 2
[3]; cotton, isolates DPL and King, DCSA 1 lb/A 24 hours before inoculation
  protection against Verticillium: provided protection against both moderate and strong isolates of Verticillium dahliae
[4]; event 469-13-19, 280 g/ha of Dicamba or DCSA followed by 100 g ae/ha of paraquat
  % injury at 5 DAT: 50.83%
[4]; event 469-13-19, 561 g/ha of Dicamba or DCSA followed by 100 g ae/ha of paraquat
  % injury at 5 DAT: 48.33%
[4]; event 469-13-19, 1120 g/ha of Dicamba or DCSA followed by 100 g ae/ha of paraquat
  % injury at 5 DAT: 43.33%
[4]; in vivo
  % injury at 5 DAT: 66.67% and 53.33% and 49.17%
[4]; transgenic soybean, applied 24 hrs before Paraquat, reduction in injury increased with rate
  protection against oxidative stress caused by subsequently applied paraquat: provided protection against oxidative stress
[5]; four varieties of RR cotton pretreated with DCSA (24 hours), two nodes stage and 5 nodes stage
  Gramoxone injury: reduced significantly
[6]
  survival of cotton plants after inoculation with Pythium ultimum: survive inoculation
[7]
  bacterial blight symptoms: only localized lesions (HR response) and no increase in bacterial blight symptoms

## COc1c(Cl)ccc(Cl)c1C(=O)O [Dicamba, 3,6-dichloro-2-methoxybenzoic acid]
[1]
  induction of PR2 at various rates: induction of PR2
[1]; DMO soybean, dicamba (Clarity) 1 lb/acre at Post-V3, leaf samples 0-72 HAT, FIG. 1
  induction of PR2 at various time points: induction of PR2
[8]
  yield relative to unsprayed controls: an increase or equivalent yield to unsprayed controls
[4]; in vivo
  % injury at 5 DAT: 65.00% and 54.17% and 45.83% and 51.67% and 40.83%
  Paraquat injury: significantly reduced Paraquat injury
  protection against oxidative stress caused by subsequently applied paraquat: provided protection against oxidative stress

## O=C(O)CNCP(=O)(O)O [Glyphosate, N-phosphonomethylglycine, reference compound]
[3]; [10]
  Plant survival rating (out of 10): 10
  Severity rating (1-9): 2
[3]; [11]
  Plant survival rating (out of 10): 10
  Severity rating (1-9): 3.5

## C[n+]1ccc(-c2cc[n+](C)cc2)cc1 [Paraquat]
[4]; N3001 (non-transgenic) soybean, paraquat 200 g ae/ha, V-3 stage, 4 DAT
  % injury: 75%
[4]; transgenic event 462-1-21, paraquat 100 g ae/ha alone
  % injury at 5 DAT Paraquat alone control: 75.83%
[4]; transgenic event 469-13-19, paraquat 100 g ae/ha alone
  % injury at 5 DAT Paraquat alone control: 77.50%
[4]; transgenic soybean plants contacted with Paraquat alone
  injury rate: about 75%
[5]; cotton ST3273B2RF, Gramoxone 30 g a.i./ha
  Percentage injury: 35%
[5]; cotton ST3273B2RF, Gramoxone 70 g a.i./ha
  Percentage injury: 50%
[5]; cotton ST3273B2RF, Gramoxone 100 g a.i./ha
  Percentage injury: 50%
[5]; cotton ST4575BR, Gramoxone 100 g a.i./ha
  Percentage injury: 65%
[5]; cotton ST4646B2RF, Gramoxone 100 g a.i./ha
  Percentage injury: 70%
[5]; cotton ST6622RF, Gramoxone 70 g a.i./ha
  Percentage injury: 50%
[5]; cotton ST6622RF, Gramoxone 100 g a.i./ha
  Percentage injury: 70%
